Reference: patent US20230201267A1, “RETINAL PIGMENTED EPITHELIUM AND PHOTORECEPTOR DUAL CELL AGGREGATES AND METHODS OF USE THEREOF” (FUJIFILM Cellular Dynamics, Inc., priority 2020, published 2023)

Legend:
[1] = test system: RPE and PRP dual cell aggregates; assay: Dual cell aggregate formation in thaw medium with or without Y-27632 (phase contrast); format: cell-based, human; conditions: Y-27632 in thaw medium (RPE-MM), 1 RPE:8 PRP, compared with thaw without Y-27632
Method: (§1) To characterize a dual cell aggregate culture, RPE were thawed in RPE-MM and PRP were thawed in RMN. If PRP were thawed as aggregates, either all aggregates or a sample of aggregates were TrypLE dissociated. Both cell types were counted using a ViCELL XR. RPE and PRP were combined at a desired cell ratio and cell number in RPE-MM and placed in a ULA T-75 flask on a belly dancer at 16-18 RPM to permit aggregate formation. Alternately, aggregates could be formed in a PBS mini vessel. To test in vivo function, some aggregates were transplanted into the subretinal space of a rat retina two days after aggregate formation. Surgery was performed to analyze the retinas. Aggregates or rat retinas were cryosectioned and analyzed by immunocytochemistry.
Dual cell aggregate formation without Y-27632 in thaw medium: As a first attempt to co-culture RPE and PRP as aggregates, RPE and PRP were thawed as single cells at a ratio of 1 RPE:3 PRP. Phase contrast images were captured at various time points (FIG. 1). […] However, after 21 and 69 days, aggregates had formed and appeared to be fairly regular, though skewed to a high RPE ratio, relative to PRP. Based on this experiment, all future experiments used the ROCK inhibitor Y-27632 when thawing RPE and maintained a lower RPE:PRP ratio. […]

[2] = test system: RPE and PRP dual cell aggregates; assay: Effect of PGE-2 on long-term dual cell aggregate culture (immunocytochemistry); format: cell-based, human; conditions: with vs without PGE2
Method: as §1
Effect of PGE-2 on long-term dual cell aggregate culture: During RPE culture, Prostaglandin E2 (PGE-2) is added to the culture medium from day 54 to day 68 of differentiation. PGE-2 is a hormone that stimulates RPE primary cilia formation and polarization, and its effect was tested on the dual cell aggregates (FIGS. 3-5). With this formulation of RPE and PRP, RPE generally appeared to form a majority of the aggregate, even after one month of culture. PRP did appear to mature after two months, indicated by the presence of PRPH2, an outer segment marker.

Structure (SMILES)	aggregate formation efficiency [1]	PRP organization in dual cell aggregates ([2]; one month after aggregate formation, initial ratio 1 RPE:8 PRP)	RPE organization or rod formation in dual cell aggregates ([2]; one month of culture)
C[C@@H](N)[C@H]1CC[C@H](C(=O)Nc2ccncc2)CC1 [Condition Y-27632]	qualitatively more efficient	–	–
CCCCC[C@H](O)/C=C/[C@H]1[C@H](O)CC(=O)[C@@H]1C/C=C\CCCC(=O)O [PGE2, Prostaglandin E2]	–	Differences in PRP organization were apparent	did not show striking differences
